Reference: patent publication US6075121A, “Modified peptide and peptide libraries with protease resistance, derivatives thereof and methods of producing and screening such” (Chiron Corporation, priority 1995, dated 2000)
Residues, ends and D or L forms follow the SMILES beside them. *: point of attachment. Fmoc = O=C(OCC1c2ccccc2-c2ccccc21)*

Legend:
[1] = biological target: T1, dihydrofolate reductase (DHFR) found in Pneumocystis carinii (Pneumocystis carinii, UniProt P16184); settings: stated without a test; cited from earlier work
T1 sequence (P16184 1-206): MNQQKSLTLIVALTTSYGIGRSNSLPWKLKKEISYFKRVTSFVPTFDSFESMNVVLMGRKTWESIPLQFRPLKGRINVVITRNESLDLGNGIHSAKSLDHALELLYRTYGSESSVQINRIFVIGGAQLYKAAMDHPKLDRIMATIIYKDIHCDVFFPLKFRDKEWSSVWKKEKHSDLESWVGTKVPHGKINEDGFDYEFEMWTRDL

[2] = test system: antiserum S259-8 (epitope KDFL); assay: Antibody binding of peptides and peptoids on pins, serum S259-8; parameters: key: A `P` represents a peptide sequence which gave the highest 6-8 signals; a `*` represents a peptoid sequence which scored in the top 6-10; settings: serum S259-8, epitope KDFL; for antibody binding signal rank, peptide sequence: peptide on pins; for antibody binding signal rank, peptoid sequence: peptoid on pins
Protocol: (§1) Peptoids and peptides were prepared on the pins and tested under standard conditions. The assay is best interpreted qualitatively, and the chart below gives a summary of data from three antisera tested. They are representative for the twelve sera which gave signals with both the peptoids and peptides. A `P` represents a peptide sequence which gave the highest 6-8 signals. Likewise, a `*` represents a peptoid sequence which scored in the top 6-10. For the three sera tested, 33/120 sequences are represented which lends support to the premise that there is selective binding shown by the antibody.

[3] = test system: antiserum S259-6 (epitope DFLEKI); assay: Antibody binding of peptides and peptoids on pins, serum S259-6; parameters: key: A `P` represents a peptide sequence which gave the highest 6-8 signals; a `*` represents a peptoid sequence which scored in the top 6-10; settings: serum S259-6, epitope DFLEKI
Protocol: as §1

[4] = test system: bacterial dihydrofolate reductases; settings: stated without a test; cited from earlier work
trypsin [5] = biological target: T2, trypsin (Bos taurus, UniProt P00760); assay: Proteolysis of peptoids and peptides by trypsin; format: in vitro ADME
T2 construct: gene PRSS1
T2 sequence (P00760 24-246): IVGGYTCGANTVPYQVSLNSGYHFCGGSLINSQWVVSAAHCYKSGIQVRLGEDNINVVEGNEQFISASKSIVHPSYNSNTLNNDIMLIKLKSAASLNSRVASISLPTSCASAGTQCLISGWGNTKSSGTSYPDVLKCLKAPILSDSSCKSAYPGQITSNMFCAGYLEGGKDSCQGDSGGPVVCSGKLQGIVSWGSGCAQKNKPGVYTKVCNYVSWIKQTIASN
Text: (§2) Both compounds were purified to homogeneity by HPLC.

trypsin [6] = test system: T3, trypsin; assay: Proteolysis of peptoids and peptides by trypsin; format: in vitro ADME; settings: trypsin (isolated protease) in Tris buffer, trypsin, 37° C., pH 8.0, read-out: % Area at 280 nm Remaining of Parent Peak by RP-HPLC
T3 construct: gene PRSS1
Text: as §2

chymotrypsin [7] = assay: Proteolysis of peptoids and peptides by chymotrypsin; format: in vitro ADME; settings: chymotrypsin (isolated protease) in Tris buffer, chymotrypsin, 37° C., pH 8.0, read-out: % Area at 280 nm Remaining of Parent Peak by RP-HPLC
Text: as §2

chymotrypsin [8] = biological target: chymotrypsin (Bos taurus, UniProt P00766); assay: as above; format: in vitro ADME
Text: as §2

antibody binding signal rank, peptide sequence [2] | antibody binding signal rank, peptide sequence [3] | Compound | further results
 |  | COc1cc(Cc2cnc(N)nc2N)cc(OC)c1NC(=O)CCC(=O)O [2,4-diamino-5-[3,5-di-methoxy-4-(3-hydrocarboxy-1-oxopropylamino)benzyl]pyrimidine] | inhibitory activity on DHFR [1]: inhibitory activity specific for the enzyme dihydrofolate reductase (DHFR) found in Pneumocystis carinii
P | P | DFLSK | 
 |  | COc1cc(Cc2cnc(N)nc2N)cc(OC)c1OC [Trimethoprim] | inhibition of dihydrofolate reductases [4]: potent inhibitor
 | P | DKFSL | 
P |  | DFLKS | 
 |  | CC(C)CN(CC(=O)N(CC(=O)O)CC(=O)N(CC(=O)N(CCO)CC(=O)N(CCN)CC(=O)NCC(=O)O)Cc1ccccc1)C(=O)OCC1c2ccccc2-c2ccccc21 [PEPTOID, FMOC-L*D*F*S*K*G-OH] | change of substrate under proteolysis conditions (trypsin [5]; all reaction conditions (trypsin, chymotrypsin, control)): remained unchanged; remaining at 5 min, 0.48 mg/mL (trypsin [6]; 5 min): 100%; remaining at 10 min, 0.48 mg/mL (trypsin [6]; 10 min): 100%; remaining at 3 h, 0.48 mg/mL (trypsin [6]; 3 hours): 100%; remaining at 5 min, 0.48 mg/mL (chymotrypsin [7]; 5 min): 100%; remaining at 10 min, 0.48 mg/mL (chymotrypsin [7]; 10 min): 100%; remaining at 3 h, 0.48 mg/mL (chymotrypsin [7]; 3 hours): 100%
P |  | SFLDK | 
 | P | KFLDS | 
P |  | KSDFL | 
P |  | SKDFL | 
P |  | KLSFD | antibody binding signal rank, peptoid sequence [2]: *
P | P | SDFLK | antibody binding signal rank, peptoid sequence [2]: *
 | P | LKFDS | 
 |  | CC(C)C[C@H](NC(=O)OCC1c2ccccc2-c2ccccc21)C(=O)N[C@@H](CC(=O)O)C(=O)N[C@@H](Cc1ccccc1)C(=O)N[C@@H](CO)C(=O)N[C@@H](CCCCN)C(=O)NCC(=O)O [PEPTIDE, FMOC-LDFSKG-OH] (Fmoc-LDFSKG-OH) | number of places cleaved by trypsin (trypsin [5]): only one place; time to complete cleavage by trypsin (trypsin [5]; 37° C., pH 8.0): ≤ 5 min; number of chymotrypsin cleavage sites (chymotrypsin [8]): at least two cleavage sites; cleavage completed at the preferential chymotrypsin site (chymotrypsin [8]; after 10 minutes): ~ 60%; cleavage at the second chymotrypsin site (chymotrypsin [8]; after three hours): not completely cleaved
P |  | LKSFD | antibody binding signal rank, peptoid sequence [2]: *
P | P | KDFLS | 
 | P | LFKDS | 
 | P | FSKLD | 
